Measured values as given in EP0256909B1, “N,N-bis-(4-fluorophenyl) carbamoyl acetohydroxamic acid and pharmaceutical composition containing it” (priority 1986, dated 1988).

Legend:
souris [1] = assay: Intergroup aggressiveness; format: in vivo; conditions: 32 et 256 mg/kg, comparison section
Protocol: Après avoir séjourné pendant 3 semaines dans chacune des moitiés d'une cage séparées par une cloison opaque, des groupes de 3 souris reçoivent le CRL 41131. Trente minutes plus tard, les deux groupes d'une même cage sont réunis par retrait de la cloison et on note le nombre de combats qui surviennent en 10 min.

souris [2] = assay: Electroshock test; format: in vivo; conditions: comparison section, no dose given
in vivo = conditions: mouse, in vivo; for LD50 at 24 h: dose létale 50% (DL50), 24 h after administration
Protocol: Le CRL 41131, en suspension dans une solution de gomme arabique à 5%, a été administré par voie intrapéritonéale sous un volume de 20 ml/kg chez la souris (mâle, NMRI, Evic Ceba) et de 5 ml/kg chez le rat (mâle, CD1, Sprague Dawley, Charles River).
Aussitôt après l'administration de CRL 41131, les souris groupées par lots de 10 sont placées dans des boîtes en Plexiglass (20 x 10 x 10 cm).
On note le nombre d'animaux morts, toutes les heures pendant 4 h et après 24, 48 et 72 h.
La toxicité du CRL 41131 est déterminée dans les mêmes conditions sur des lots de souris placées à raison d'une par boîte.

rat = assay: Interaction with amphetamine; format: in vivo; conditions: comparison section, no dose given
souris [3] = assay: Interaction with barbital; format: in vivo; conditions: comparison section
Protocol: Trente minutes après l'administration de CRL 41131, des lots de 10 souris reçoivent une injection intrapéritonéale de barbital (220 mg/kg).

[4] = results given in the earlier document; cited from earlier work
souris [5] = assay: Interaction with oxotremorine; format: in vivo; conditions: mouse, oxotremorine 0,5 mg/kg i.p.
Protocol: Le CRL 41131 est administré à des lots de 6 souris 30 min avant l'injection intrapéritonéale de 0,5 mg/kg d'oxotrémorine.

souris [6] = assay: Interaction with reserpine; format: in vivo; conditions: 64 mg/kg, comparison section
Protocol: Quatre heures après l'injection intrapéritonéale de 2,5 mg/kg de réserpine, des lots de 6 souris reçoivent le CRL 41131.

Q: With `O=C(CC(=O)N(c1ccccc1)c1ccccc1)NO` [CRL 40385, reference compound] as the compound, how does the “agressivité intergroupe des souris” value (souris [1]) read?
A: augmentation

Q: What about the “test à l'électrochoc” value (souris [2]) of the same compound?
A: s'oppose aux convulsions

Q: What about the LD50 at 24 h (in vivo; ip, grouped mice) of the same compound?
A: ~1050 mg/kg

Q: What about the LD50 at 24 h (in vivo; ip, isolated mice) of the same compound?
A: ~1500 mg/kg

Q: And the “test à l'amphétamine: stéréotypies du rat” value (rat)?
A: prolonge les stéréotypies du rat

Q: And the “sommeil (association au barbital)” value (souris [3]; 512 mg/kg)?
A: il ne le fait plus

Q: What about the “sommeil (association au barbital)” value (souris [3]; doses below 512 mg/kg) of the same compound?
A: diminue d'abord le sommeil

Q: And the “effet mis en évidence par un ensemble de tests” value [4]?
A: effet anti-fatigue

Q: And the “action hypothermisante de l'oxotrémorine (température)” value (souris [5])?
A: antagonise l'hyperthermie

Q: What about the “intensité des tremblements provoqués par l'oxotrémorine” value (souris [5]) of the same compound?
A: diminue l'intensité des tremblements

Q: And the “test à la réserpine: hypothermie” value (souris [6])?
A: s'oppose modérément

Q: With `CC(Cc1ccccc1)N(C)Cc1ccccc1` (stereo not shown) [benzophétamine, reference compound] as the compound, how does the selectivity ratio (in vivo; ip, rapport, LD50 ratio isolated/grouped mice (formula not readable), same conditions, 24 h) read?
A: ~4

Q: With `CCN(CC)C(C)C(=O)c1ccccc1` (stereo not shown) [diéthylpropion, reference compound] as the compound, how does the selectivity ratio at 24 h (in vivo) read?
A: ~8
